Entries after “also recorded” stand apart in the source; their conditions may differ.
Experiments:
[1] = test system: NO production in RAW264.7 mouse macrophages stimulated by lipopolysaccharide (LPS); test: Inhibitory assay of NO production in LPS-stimulated RAW264.7 macrophages; type: cell-based; conditions: for activity at 1 µM / activity at 3 µM / activity at 10 µM / activity at 30 µM / IC50: Mus musculus; for activity at 1 µM / activity at 3 µM / activity at 10 µM / activity at 30 µM / IC50 / Inhibitory Ratio of NO % (produced NO ratio): RAW264.7 + LPS 5 μg/mL, 24 h; for activity at 1 µM / activity at 3 µM / activity at 10 µM / activity at 30 µM / Inhibitory Ratio of NO % (produced NO ratio): vehicle control = 100%, mean ± S.E., n=4; for activity at 1 µM / activity at 3 µM / activity at 10 µM: read-out: Inhibitory Ratio of NO %; for activity at 30 µM: read-out: Inhibitory Ratio of NO % (produced NO ratio); for activity at 30 µM / Inhibitory Ratio of NO % (produced NO ratio): 30 μM
From the text: Macrophages may be a potential therapeutic target for inflammatory diseases. Activated macrophages release pro-inflammatory mediators, such as NO, reactive oxygen species, interleukin-1β, tumor necrosis factor-α, and other inflammatory mediators, which play important roles in biological defense. However, the overexpression of these mediators had been implicated in diseases such as osteoarthritis, rheumatoid arthritis, and diabetes because the increased production of pro-inflammatory mediators induces severe or chronic inflammation. Isolated compounds (1–12), and N^G-monomethyl-L-arginine, acetate (L-NMMA), which is a NO synthase inhibitor and was used as a positive control, were evaluated for macrophage activation by the inhibitory assay of NO production in RAW264.7 mouse macrophages stimulated by lipopolysaccharide (LPS).
(§1) RAW264.7 cells were grown in D-MEM medium supplemented with 10% FBS and antibiotics (100 units/mL penicillin G sodium salt and 100 μg/mL streptomycin sulfate). Cells were incubated at 37 °C in a 5% CO2 humidified incubator.
An inhibitory assay of NO production was performed according to a method reported previously with slight modifications. Briefly, RAW264.7 cells (5 × 10^4 cells in 100 μL) were seeded into a 96-well microplate and incubated for 24 h. DMEM containing test samples (100 μL total volume, final concentration of 30, 10, 3, or 1 μM) dissolved in DMSO (final concentration 0.2%), and LPS (final concentration of 5 μg/mL), was added. After treatment for 24 h, the supernatant of culture medium was transferred to another 96-well microplate, and then 50 μL of 0.15% N-(1-naphtyl)ethylenediamine in H2O, and 1.5% sulfanilamide in 7.5% phosphoric acid were added. After incubation for 30 min, the absorbance of each well was read at 570 nm using a microplate reader. The optical density of vehicle control cells was assumed to be 100%.

[2] = Cytotoxicity assay (MTT) in RAW264.7 cells; type: cell-based, mouse; conditions: mouse, RAW264.7 cells, RAW264.7, MTT, 24 h, vehicle control = 100%, mean ± S.E., n=4, read-out: Cell Viability %
Protocol: as §1
(§2) Cytotoxicity assay was performed according to a method reported previously Briefly, RAW264.7 cells (5 × 10^4 cells in 100 μL) were seeded onto a 96-well microplate and incubated for 24 h. DMEM containing test samples (100 μL total volume, final concentration of 30, 10, 3, or 1 μM) dissolved in DMSO (final concentration 0.2%) was added. After treatment for 24 h, MTT solution was added. After a 3-h incubation, 20% sodium dodecyl sulfate in 0.1 M HCl was added to dissolve the formazan produced in the cells. The absorbance of each well was read at 570 nm using a microplate reader. The optical density of vehicle control cells was assumed to be 100%.

RAW264.7 cells = test: Cytotoxicity assay (MTT) in RAW264.7 cells; type: cell-based, mouse; conditions: RAW264.7, 1–30 μM
Protocol: as §1, §2

IC50 [1]	melting point	SMILES	activity at 1 µM [1]	activity at 3 µM [1]	activity at 10 µM [1]	activity at 30 µM [1]	viability at 24 h, 1 µM [2]	viability at 24 h, 3 µM [2]	viability at 24 h, 10 µM [2]	viability at 24 h, 30 µM [2]	inhibitory effect on NO production (in words) ([1]; RAW264.7 + LPS, 1–30 μM)	cytotoxicity (in words) (RAW264.7 cells)	Inhibitory Ratio of NO % (produced NO ratio) [1]
> 30 µM		CC1(C)O[C@H]2CC(=O)OC[C@]23[C@H]2CC[C@@]4(C)[C@H](C5=CCOC5=O)OC(=O)[C@H]5O[C@]54[C@]2(C)C(=O)C[C@@H]13 [Compound 5, 21,23-Dihydro-21-oxolimonin]	99.5 ± 5.6%	101 ± 4.7%	93.8 ± 1.6%	83.2%	97.9%	97.9%	99.5%	96.6%			83.2 ± 5.6 %
> 30 µM		CC1(C)O[C@H]2CC(=O)OC[C@]23[C@H]2CC[C@@]4(C)[C@H](c5ccoc5)OC(=O)[C@H]5O[C@]54[C@]2(C)C(=O)C[C@@H]13 [Compound 6, limonin]	102 ± 4.4%	93.4 ± 5.7%	90.9 ± 3.1%	86 ± 5.5%	100%	95.6%	97.2%	99.3%			
> 30 µM		CC1(C)O[C@H]2CC(=O)OC[C@]23[C@H]2CC[C@@]4(C)[C@H](C5=CC(=O)OC5O)OC(=O)[C@H]5O[C@]54[C@]2(C)C(=O)C[C@@H]13 (stereo partly drawn) [Compound 7, shihulimonin A]	99.8 ± 1.4%	99 ± 3%	96.8 ± 2.5%	93.9 ± 4%	102%	106%	104%	100%			
> 30 µM		COC1OC(OC)C2(C3OC(=O)C4OC45C3(C)CCC3C46COC(=O)CC4OC(C)(C)C6CC(=O)C35C)OC12 (stereo not drawn) [Compound 9, evolimorutanin]	94.3 ± 4.3%	85.2 ± 6.4%	91.3 ± 2.8%	89.9 ± 3.2%	101%	97.7%	101%	97.6%			
> 30 µM		CC1(C)OC(=O)C=C[C@]2(C)[C@H]3CC[C@@]4(C)[C@H](C5=CC(=O)OC5O)OC(=O)[C@H]5O[C@]54[C@]3(C)C(=O)C[C@@H]12 (stereo partly drawn) [Compound 10, kihadanin A]	95 ± 4.2%	96.8 ± 1.3%	97.7 ± 2.2%	86.6 ± 1.6%	105%	102%	98.9%	98.6%			
> 30 µM		CC1(C)OC(=O)C[C@H](O)[C@]2(C)[C@H]3CC[C@@]4(C)[C@H](c5ccoc5)OC(=O)[C@H]5O[C@]54[C@]3(C)C(=O)C[C@@H]12 [Compound 11, deacetylnomilin]	104 ± 3.1%	93.2 ± 3.2%	84.7 ± 3.2%	78.1%	95.9%	100%	99.3%	100%			78.1 ± 3.4 %
> 30 µM		CC(C)(O)[C@@H]1CC(=O)[C@]2(C)[C@H](CC[C@@]3(C)[C@H](c4ccoc4)OC(=O)[C@H]4O[C@]432)[C@]12COC(=O)C[C@@H]2O [Compound 12, ichangin]	107 ± 4.1%	92.6 ± 3.2%	88.4 ± 5.5%	73.9%	101%	98.1%	98.3%	98.3%			73.9 ± 3.4 %

The next lines start with the molecule.

SMILES	IC50 [1]	melting point	activity at 1 µM [1]	activity at 3 µM [1]	activity at 10 µM [1]	activity at 30 µM [1]	viability at 24 h, 1 µM [2]	viability at 24 h, 3 µM [2]	viability at 24 h, 10 µM [2]	viability at 24 h, 30 µM [2]	inhibitory effect on NO production (in words) ([1]; RAW264.7 + LPS, 1–30 μM)	cytotoxicity (in words) (RAW264.7 cells)	Inhibitory Ratio of NO % (produced NO ratio) [1]
CC(=O)O[C@H]1CC(=O)OC(C)(C)[C@@H]2CC(=O)[C@]3(C)[C@H](CC[C@@]4(C)[C@H](C5=CC(=O)OC5O)OC(=O)[C@H]5O[C@]543)[C@@]12C (stereo partly drawn) [Compound 1, 21,23-dihydro-21-hydroxy-23-oxonomilin]	> 30 µM	200 to 201 °C	110 ± 2.8%	111 ± 1.7%	105 ± 2.2%	107 ± 2.5%	99.1%	102%	104%	99.3%			
COC1C=C([C@@H]2OC(=O)[C@H]3O[C@@]34[C@@]2(C)CC[C@@H]2[C@@]3(C)[C@@H](OC(C)=O)CC(=O)OC(C)(C)[C@@H]3CC(=O)[C@]24C)C(=O)O1 (stereo partly drawn) [Compound 2, 21,23-dihydro-23-methoxy-21-oxonomilin]	25.4 µM	208 to 210 °C	95.2 ± 1.6%	89.8 ± 2.1%	80.4 ± 2.1%	39.3 ± 0.5%	101%	98.7%	99.1%	94.5%	exhibited NO inhibitory activity	without cytotoxicity; also recorded: without cytotoxicities	
COC(=O)CC(OC(C)=O)C1(C)C(C(C)(C)O)CC(=O)C2(C)C1CCC1(C)C(C3=CC(=O)OC3O)OC(=O)C3OC312 (stereo not drawn) [Compound 3, 21,23-dihydro-21-hydroxy-23-oxonomilinic acid methyl ester]	> 30 µM		99.4 ± 0.8%	99.4 ± 2.3%	94.1 ± 1.9%	80.3%	96.8%	94.5%	93.2%	93.4%			80.3 ± 1.2 %
COC1C=C([C@@H]2OC(=O)[C@H]3O[C@@]34[C@@]2(C)CC[C@@H]2[C@@]35COC(=O)C[C@@H]3OC(C)(C)[C@@H]5CC(=O)[C@]24C)C(=O)O1 (stereo partly drawn) [Compound 4, 21,23-dihydro-23-methoxy-21-oxolimonin]	> 30 µM		96.2 ± 7.9%	94 ± 2.7%	101 ± 1.2%	95.2 ± 3.4%	103%	97%	95.1%	91.7%			
CC1(C)O[C@H]2CC(=O)OC[C@]23[C@H]2CC[C@@]4(C)[C@H](C5=CC(O)OC5=O)OC(=O)[C@H]5O[C@]54[C@]2(C)C(=O)C[C@@H]13 (stereo partly drawn) [Compound 8, limonexic acid]	> 30 µM		97.2 ± 1.1%	94.7 ± 2.4%	90.9 ± 1.6%	76%	98.1%	97.6%	92%	89.3%			76.0 ± 2.2 %
[H]/N=C(/NC)NCCC[C@H](N)C(=O)O [L-NMMA, N^G-monomethyl-L-arginine, acetate, reference compound]	23.9 µM		93.3 ± 2.2%	91.4 ± 0.8%	68.9 ± 4.5%	43.1 ± 1.1%	102%	102%	98.5%	109%			
